In patent US9828379B2 (priority 2013, dated 2017):
Read-outs that look alike come from different tables or passages of the source.

Experiments:
[1] = molecular target: T1, FAAH (Mus musculus, UniProt O08914); assay: In vitro competitive activity-based protein profiling (Table 2, % inhibition at 1 μM); assay type: biochemical; conditions: read-out: % Inhibition at 1 μM FAAH
T1 sequence (O08914 1-579): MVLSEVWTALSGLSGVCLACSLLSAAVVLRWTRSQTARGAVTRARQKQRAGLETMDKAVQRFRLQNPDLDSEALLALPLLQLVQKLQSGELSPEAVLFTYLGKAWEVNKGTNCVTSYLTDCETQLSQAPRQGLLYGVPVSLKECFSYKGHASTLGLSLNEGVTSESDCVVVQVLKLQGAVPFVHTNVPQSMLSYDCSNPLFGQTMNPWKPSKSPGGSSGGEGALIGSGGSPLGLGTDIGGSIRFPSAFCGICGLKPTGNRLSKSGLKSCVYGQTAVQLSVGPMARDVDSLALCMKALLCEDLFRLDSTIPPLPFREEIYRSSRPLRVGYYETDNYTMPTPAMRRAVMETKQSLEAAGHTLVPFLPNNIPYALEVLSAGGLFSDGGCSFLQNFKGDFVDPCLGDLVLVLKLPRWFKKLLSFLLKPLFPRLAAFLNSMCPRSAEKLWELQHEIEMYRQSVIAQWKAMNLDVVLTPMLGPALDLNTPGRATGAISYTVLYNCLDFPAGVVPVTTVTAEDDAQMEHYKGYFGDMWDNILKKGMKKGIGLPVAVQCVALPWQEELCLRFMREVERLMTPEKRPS

[2] = molecular target: T2, ABHD6 (Mus musculus, UniProt Q8R2Y0); assay: as above; assay type: biochemical; conditions: read-out: % Inhibition at 1 μM ABHD6
T2 sequence (Q8R2Y0 1-336): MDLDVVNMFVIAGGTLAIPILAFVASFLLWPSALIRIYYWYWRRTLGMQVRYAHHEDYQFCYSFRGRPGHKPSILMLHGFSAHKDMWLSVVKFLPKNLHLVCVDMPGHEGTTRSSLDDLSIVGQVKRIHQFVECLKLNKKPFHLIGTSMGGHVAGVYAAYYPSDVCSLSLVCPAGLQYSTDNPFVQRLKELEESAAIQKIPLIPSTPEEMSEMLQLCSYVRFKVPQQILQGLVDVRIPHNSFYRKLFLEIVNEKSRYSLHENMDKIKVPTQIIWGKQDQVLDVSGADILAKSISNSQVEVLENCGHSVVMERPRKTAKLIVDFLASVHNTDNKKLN

[3] = molecular target: T1, FAAH; assay: biochemical; conditions: in vitro competitive ABPP
[4] = molecular target: T2, ABHD6; assay: biochemical; conditions: in vitro competitive ABPP
[5] = molecular target: T3, MAGL (Mus musculus, UniProt O35678); assay: biochemical
T3 sequence (O35678 1-303): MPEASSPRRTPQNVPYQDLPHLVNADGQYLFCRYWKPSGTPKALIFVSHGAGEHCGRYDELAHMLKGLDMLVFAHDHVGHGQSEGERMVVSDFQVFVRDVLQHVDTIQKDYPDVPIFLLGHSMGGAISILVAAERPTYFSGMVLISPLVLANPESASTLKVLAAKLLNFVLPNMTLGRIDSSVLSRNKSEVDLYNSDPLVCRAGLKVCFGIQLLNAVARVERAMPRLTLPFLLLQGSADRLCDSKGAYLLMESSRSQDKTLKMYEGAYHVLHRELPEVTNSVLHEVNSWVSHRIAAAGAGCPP

[6] = molecular target: T3, MAGL; assay: In vitro competitive activity-based protein profiling (Table 2, % inhibition at 1 μM); assay type: biochemical; conditions: read-out: % Inhibition at 1 μM MAGL
Experimental: After 30 min, FP—Rh (1.0 μL, 50 μM in DMSO) was added and the mixture was incubated for another 30 min at 37° C. Reactions were quenched with SDS loading buffer (50 μL-4×) and run on SDS-PAGE.
Cell lysates were diluted with mock proteomes for use in competitive ABPP experiments.

[7] = mouse, in vitro competitive ABPP, read-out: Mouse (IC50 value, nM) MAGL

Structure (SMILES) | inhibition at 1 µM [1] [%] | inhibition at 1 µM [2] [%] | IC50 [3] [nM] | IC50 [4] [nM] | IC50 [5, 7] [nM] | inhibition at 1 µM [6] [%] | IC50 [5] [nM]
CCn1ncc(CN2CC3CN(C(=O)OC(C(F)(F)F)C(F)(F)F)CC3C2)c1C(=O)NCC1CCOCC1 (stereo not drawn) [Example 181, 1,1,1,3,3,3-hexafluoropropan-2-yl 5-((1-ethyl-5-(((tetrahydro-2H-pyran-4-yl)methyl)carbamoyl)-1H-pyrazol-4-yl)methyl)hexahydropyrrolo[3,4-c]pyrrole-2(1H)-carboxylate] | < 25 | 25 to 75 | > 10000 | 100 to 1000 | < 100 | > 75 | –
O=C(OC(C(F)(F)F)C(F)(F)F)N1CC2CN(Cc3cc(CN4CCCCC4)cc(OC(F)(F)F)c3)CC2C1 (stereo not drawn) [Example 184, 1,1,1,3,3,3-hexafluoropropan-2-yl 5-(3-(piperidin-1-ylmethyl)-5-(trifluoromethoxy)benzyl)hexahydropyrrolo[3,4-c]pyrrole-2(1H)-carboxylate] | < 25 | < 25 | 1000 to 10000 | 1000 to 10000 | 100 to 1000 | > 75 | –
CC1COCCN1c1cc(F)ccc1CN1CC2CN(C(=O)OC(C(F)(F)F)C(F)(F)F)CC2C1 (stereo not drawn) [Example 16, 1,1,1,3,3,3-Hexafluoropropan-2-yl 5-[[4-fluoro-2-(3-methylmorpholin-4-yl)phenyl]methyl]-octahydropyrrolo[3,4-c]pyrrole-2-carboxylate] | < 25 | < 25 | 1000 to 10000 | 1000 to 10000 | < 100 | > 75 | –
CC1COCCN1c1cc(Cl)ccc1CN1CC2CN(C(=O)OC(C(F)(F)F)C(F)(F)F)CC2C1 (stereo not drawn) [Example 20, 1,1,1,3,3,3-Hexafluoropropan-2-yl 5-[[4-chloro-2-(3-methylmorpholin-4-yl)phenyl]methyl]-octahydropyrrolo[3,4-c]pyrrole-2-carboxylate] | < 25 | < 25 | 1000 to 10000 | 1000 to 10000 | < 100 | > 75 | –
O=C(ON1C(=O)CCC1=O)N1CC2CN(Cc3ccccc3-c3ccccc3)CC2C1 (stereo not drawn) [Example 87, 2,5-Dioxopyrrolidin-1-yl-5-[(2-phenylphenyl)methyl]-octahydropyrrolo[3,4-c]pyrrole-2-carboxylate] | 25 to 75 | 25 to 75 | 100 to 1000 | 1000 to 10000 | 100 to 1000 | > 75 | –
O=C(OC(C(F)(F)F)C(F)(F)F)N1CC2CN(Cc3cc(CN4CCCC4)ccc3OC(F)(F)F)CC2C1 (stereo not drawn) [Example 190, 1,1,1,3,3,3-hexafluoropropan-2-yl 5-(5-(pyrrolidin-1-ylmethyl)-2-(trifluoromethoxy)benzyl)hexahydropyrrolo[3,4-c]pyrrole-2(1H)-carboxylate] | < 25 | < 25 | 1000 to 10000 | 1000 to 10000 | 100 to 1000 | > 75 | –
Cc1c(CN2CC3CN(C(=O)OC(C(F)(F)F)C(F)(F)F)CC3C2)cccc1N1CCC(F)(F)CC1 (stereo not drawn) [Example 153, 1,1,1,3,3,3-hexafluoropropan-2-yl 5-[[3-(4,4-difluoropiperidin-1-yl)-2-methylphenyl]methyl]-octahydropyrrolo[3,4-c]pyrrole-2-carboxylate] | 25 to 75 | < 25 | 1000 to 10000 | > 10000 | < 100 | > 75 | –
Cc1c(CN2CC3CN(C(=O)OC(C(F)(F)F)C(F)(F)F)CC3C2)cccc1N1CCC(NS(C)(=O)=O)CC1 (stereo not drawn) [Example 149, 1,1,1,3,3,3-hexafluoropropan-2-yl 5-[[3-(4-methanesulfonamidopiperidin-1-yl)-2-methylphenyl]methyl]-octahydropyrrolo[3,4-c]pyrrole-2-carboxylate] | 25 to 75 | < 25 | 1000 to 10000 | 1000 to 10000 | < 100 | > 75 | –
O=C(OC(C(F)(F)F)C(F)(F)F)N1CC2CN(Cc3ccc(N4CCCCC4)cc3C(F)F)CC2C1 (stereo not drawn) [Example 201, 1,1,1,3,3,3-hexafluoropropan-2-yl 5-(2-(difluoromethyl)-4-(piperidin-1-yl)benzyl)hexahydropyrrolo[3,4-c]pyrrole-2(1H)-carboxylate] | 25 to 75 | < 25 | 1000 to 10000 | 1000 to 10000 | 100 to 1000 | > 75 | –
O=C(ON1C(=O)CCC1=O)N1CC2CN(Cc3ccc(Cl)cc3N3CC4CCC(C3)O4)CC2C1 (stereo not drawn) [Example 81, 2,5-Dioxopyrrolidin-1-yl 5-(2-(8-oxa-3-azabicyclo[3.2.1]octan-3-yl)-4-chlorobenzyl)hexahydropyrrolo[3,4-c]pyrrole-2(1H)-carboxylate] | < 25 | 25 to 75 | 1000 to 10000 | 1000 to 10000 | – | 25 to 75 | 100 to 1000
O=C(ON1C(=O)CCC1=O)N1CC2CN(Cc3cccc(-c4ccccc4)c3)CC2C1 (stereo not drawn) [Example 88, 2,5-Dioxopyrrolidin-1-yl 5-[(3-phenylphenyl)methyl]-octahydropyrrolo[3,4-c]pyrrole-2-carboxylate] | > 75 | 25 to 75 | 100 to 1000 | 1000 to 10000 | < 100 | > 75 | –
Cc1cc(CN2CC3CN(C(=O)OC(C(F)(F)F)C(F)(F)F)CC3C2)n(C(C)C)n1 (stereo not drawn) [Example 59, 1,1,1,3,3,3-Hexafluoropropan-2-yl 5-[[3-methyl-1-(propan-2-yl)-1H-pyrazol-5-yl]methyl]-octahydropyrrolo[3,4-c]pyrrole-2-carboxylate] | 25 to 75 | 25 to 75 | 1000 to 10000 | 1000 to 10000 | 100 to 1000 | > 75 | –
O=C(OC(C(F)(F)F)C(F)(F)F)N1CC2CN(Cc3ccc(N4CCCC4)cc3C(F)F)CC2C1 (stereo not drawn) [Example 202, 1,1,1,3,3,3-hexafluoropropan-2-yl 5-(2-(difluoromethyl)-4-(pyrrolidin-1-yl)benzyl)hexahydropyrrolo[3,4-c]pyrrole-2(1H)-carboxylate] | 25 to 75 | < 25 | 1000 to 10000 | 1000 to 10000 | 100 to 1000 | > 75 | –
O=C(OC(C(F)(F)F)C(F)(F)F)N1CC2CN(Cc3ccc(C(F)F)cc3N3CCCCC3)CC2C1 (stereo not drawn) [Example 204, 1,1,1,3,3,3-hexafluoropropan-2-yl 5-(4-(difluoromethyl)-2-(piperidin-1-yl)benzyl)hexahydropyrrolo[3,4-c]pyrrole-2(1H)-carboxylate] | < 25 | < 25 | 1000 to 10000 | 1000 to 10000 | < 100 | > 75 | –
O=C(ON1C(=O)CCC1=O)N1CC2CN(Cc3ccc(N4CCOCC4)cc3Cl)CC2C1 (stereo not drawn) [Example 80, 2,5-Dioxopyrrolidin-1-yl 5-(2-chloro-4-morpholinobenzyl)hexahydropyrrolo[3,4-c]pyrrole-2(1H)-carboxylate] | 25 to 75 | < 25 | 1000 to 10000 | 1000 to 10000 | 100 to 1000 | 25 to 75 | –
CC1COCCN1c1ccc(CN2CC3CN(C(=O)OC(C(F)(F)F)C(F)(F)F)CC3C2)c(F)c1 (stereo not drawn) [Example 25, 1,1,1,3,3,3-Hexafluoropropan-2-yl 5-[[2-fluoro-4-(3-methylmorpholin-4-yl)phenyl]methyl]-octahydropyrrolo[3,4-c]pyrrole-2-carboxylate] | 25 to 75 | 25 to 75 | 1000 to 10000 | 1000 to 10000 | < 100 | > 75 | –
